Here are results for 24 molecules from patent US12264156B2, “Compounds and pharmaceutical compositions thereof for the treatment of diseases” (GALAPAGOS NV, priority 2018, dated 2025).

Holding throughout (assay type): biochemical
Common to all, as to settings: ADP-Glo SIK kinase assay
In general terms: ADP-Glo first removes unused ATP, then detects ADP through luciferase.

The target of one test is T1, SIK1 (Homo sapiens, UniProt P57059).
T1 construct: purchased Carna Biosciences 02-131
The test can be described thus: ADP-Glo kinase assay, SIK1. A digest of the protocol:
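ADP-Glo, RT throughout. Enz/substrate + ATP, 120 min; ADP-Glo reagent 40 min (ATP depletion); detection reagent 30 min; luminescence read. Neg ctrl 1% DMSO, pos ctrl 10 μM staurosporine, final concs.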

For another test, the target named is T2, SIK2 (Homo sapiens, UniProt Q9H0K1).
T2 construct: purchased ThermoFisher Scientific PV4792
T2 sequence (Q9H0K1 whole entry): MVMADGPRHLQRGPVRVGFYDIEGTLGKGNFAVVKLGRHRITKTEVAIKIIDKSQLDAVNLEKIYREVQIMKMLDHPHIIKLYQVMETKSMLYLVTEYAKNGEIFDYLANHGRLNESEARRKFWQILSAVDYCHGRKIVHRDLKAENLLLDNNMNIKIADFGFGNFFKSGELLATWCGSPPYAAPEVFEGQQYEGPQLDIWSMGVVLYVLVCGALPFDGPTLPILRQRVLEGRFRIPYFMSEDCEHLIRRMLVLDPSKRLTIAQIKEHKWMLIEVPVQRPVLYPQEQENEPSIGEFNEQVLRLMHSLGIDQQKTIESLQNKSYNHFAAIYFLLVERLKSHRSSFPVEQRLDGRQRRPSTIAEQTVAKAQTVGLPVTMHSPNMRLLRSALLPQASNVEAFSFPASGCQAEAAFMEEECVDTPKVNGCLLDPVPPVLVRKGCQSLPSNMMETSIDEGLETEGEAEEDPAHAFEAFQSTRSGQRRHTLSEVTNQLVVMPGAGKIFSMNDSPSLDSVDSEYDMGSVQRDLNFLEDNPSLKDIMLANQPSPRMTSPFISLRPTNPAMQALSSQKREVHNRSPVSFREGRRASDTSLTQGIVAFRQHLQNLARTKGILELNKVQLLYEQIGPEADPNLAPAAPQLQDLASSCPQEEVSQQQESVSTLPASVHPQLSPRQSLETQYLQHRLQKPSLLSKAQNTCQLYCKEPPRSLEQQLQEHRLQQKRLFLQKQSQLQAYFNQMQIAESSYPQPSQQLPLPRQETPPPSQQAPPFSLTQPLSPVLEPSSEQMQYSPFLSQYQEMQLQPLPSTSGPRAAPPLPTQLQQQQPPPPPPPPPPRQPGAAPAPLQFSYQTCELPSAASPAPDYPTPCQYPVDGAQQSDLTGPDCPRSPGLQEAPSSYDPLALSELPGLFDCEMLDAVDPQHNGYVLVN
The test is described as follows: ADP-Glo kinase assay, SIK2. In short, it runs like this: (§1)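 Wells with 1% DMSO or 10 μM staurosporine (final) define the control window. The kinase reaction with substrate and ATP runs 120 min at RT, followed by ADP-Glo detection: ATP depletion (40 min) and ADP-derived luminescence (30 min).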

For the next test, the target named is T3, SIK3 (Homo sapiens, UniProt Q9Y2K2).
T3 construct: purchased SignalChem S12-11G-100
T3 sequence (Q9Y2K2 whole entry): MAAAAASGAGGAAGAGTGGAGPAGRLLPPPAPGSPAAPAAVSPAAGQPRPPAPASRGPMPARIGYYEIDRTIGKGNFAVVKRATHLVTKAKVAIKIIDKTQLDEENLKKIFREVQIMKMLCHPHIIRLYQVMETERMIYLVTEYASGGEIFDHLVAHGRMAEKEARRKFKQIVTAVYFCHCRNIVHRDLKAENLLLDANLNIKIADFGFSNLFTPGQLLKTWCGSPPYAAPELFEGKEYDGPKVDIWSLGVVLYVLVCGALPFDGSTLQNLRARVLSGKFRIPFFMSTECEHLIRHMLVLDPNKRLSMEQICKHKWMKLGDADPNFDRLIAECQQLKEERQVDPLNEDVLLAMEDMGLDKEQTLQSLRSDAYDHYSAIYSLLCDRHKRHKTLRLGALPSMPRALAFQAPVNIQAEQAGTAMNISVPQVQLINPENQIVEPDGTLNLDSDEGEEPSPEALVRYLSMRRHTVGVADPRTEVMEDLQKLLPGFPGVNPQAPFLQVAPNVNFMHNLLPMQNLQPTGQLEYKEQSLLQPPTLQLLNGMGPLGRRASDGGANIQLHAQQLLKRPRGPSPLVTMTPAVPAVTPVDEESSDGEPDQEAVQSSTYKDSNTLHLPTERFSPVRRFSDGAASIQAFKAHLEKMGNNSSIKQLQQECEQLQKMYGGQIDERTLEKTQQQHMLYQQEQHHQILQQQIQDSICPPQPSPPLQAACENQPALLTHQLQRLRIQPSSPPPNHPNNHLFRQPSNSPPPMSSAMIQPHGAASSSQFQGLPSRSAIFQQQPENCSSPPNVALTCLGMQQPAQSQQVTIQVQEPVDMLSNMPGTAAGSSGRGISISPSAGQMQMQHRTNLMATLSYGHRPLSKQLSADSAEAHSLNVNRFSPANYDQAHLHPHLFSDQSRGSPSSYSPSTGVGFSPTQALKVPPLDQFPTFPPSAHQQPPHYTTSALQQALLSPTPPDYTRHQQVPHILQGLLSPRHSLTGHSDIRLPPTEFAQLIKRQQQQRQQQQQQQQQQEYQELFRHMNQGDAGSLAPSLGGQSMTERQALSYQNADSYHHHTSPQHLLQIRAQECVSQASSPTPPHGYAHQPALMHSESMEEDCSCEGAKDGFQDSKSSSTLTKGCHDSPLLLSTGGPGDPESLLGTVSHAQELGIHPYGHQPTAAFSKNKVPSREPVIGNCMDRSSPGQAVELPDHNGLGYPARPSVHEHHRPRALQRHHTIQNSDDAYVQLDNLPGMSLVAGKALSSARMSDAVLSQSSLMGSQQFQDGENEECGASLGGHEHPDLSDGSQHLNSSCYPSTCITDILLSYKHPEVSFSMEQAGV
The test can be described thus: ADP-Glo kinase assay, SIK3. A digest of the protocol: as §1

Some results are limits rather than exact numbers.

T1 sequence (P57059 whole entry): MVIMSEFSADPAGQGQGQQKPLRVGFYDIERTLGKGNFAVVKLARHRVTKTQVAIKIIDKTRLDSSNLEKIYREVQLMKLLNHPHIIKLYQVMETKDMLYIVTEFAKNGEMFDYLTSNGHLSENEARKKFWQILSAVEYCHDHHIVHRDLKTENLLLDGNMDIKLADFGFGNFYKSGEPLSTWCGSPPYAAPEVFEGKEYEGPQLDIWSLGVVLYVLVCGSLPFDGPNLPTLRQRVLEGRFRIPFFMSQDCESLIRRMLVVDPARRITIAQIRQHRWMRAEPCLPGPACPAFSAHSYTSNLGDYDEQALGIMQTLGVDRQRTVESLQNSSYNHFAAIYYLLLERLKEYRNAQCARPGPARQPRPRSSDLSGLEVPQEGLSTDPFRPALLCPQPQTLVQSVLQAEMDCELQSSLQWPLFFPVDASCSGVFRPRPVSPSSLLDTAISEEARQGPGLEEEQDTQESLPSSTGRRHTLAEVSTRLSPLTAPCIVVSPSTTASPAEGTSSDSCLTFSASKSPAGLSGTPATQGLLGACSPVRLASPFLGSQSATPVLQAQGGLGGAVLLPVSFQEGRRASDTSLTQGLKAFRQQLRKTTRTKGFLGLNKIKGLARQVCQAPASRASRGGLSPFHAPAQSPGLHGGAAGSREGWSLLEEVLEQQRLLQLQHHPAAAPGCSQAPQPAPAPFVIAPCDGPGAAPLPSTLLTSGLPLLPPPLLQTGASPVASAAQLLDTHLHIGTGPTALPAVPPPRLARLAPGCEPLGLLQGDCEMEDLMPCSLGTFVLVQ

As to `COC(=O)C1(COc2ccn3c(-c4cc(OC)c(C(=O)NC5CC5)c(OC(F)F)c4)cnc3c2)CC1` [compound 57, methyl 1-[[3-[4-(cyclopropylcarbamoyl)-3-(difluoromethoxy)-5-methoxy-phenyl]imidazo[1,2-a]pyridin-7-yl]oxymethyl] cyclopropanecarboxylate], the half-inhibitory concentration (IC50) is 10 to 100 nM at SIK1, 0.01 to 10 nM against SIK2 and 0.01 to 10 nM against SIK3.
`COc1cc(-c2cnc3cc(OCC4CCCOC4)ccn23)cc(OC(F)F)c1C(=O)NC1CC1` (stereo not drawn) [compound 59, N-cyclopropyl-2-(difluoromethoxy)-6-methoxy-4-[7-(tetrahydropyran-3-ylmethoxy)imidazo[1,2-a]pyridin-3-yl]benzamide]: the concentration for half-maximal inhibition (IC50) at SIK1, on SIK2 and against SIK3 was 0.01 to 10 nM throughout.
`COc1cc(-c2cnc3cc(OCc4cocn4)ccn23)cc(OC(F)F)c1C(=O)NC1CC1` [compound 60, N-cyclopropyl-2-(difluoromethoxy)-6-methoxy-4-[7-(oxazol-4-ylmethoxy)imidazo[1,2-a]pyridin-3-yl]benzamide]: the half-maximal inhibitory concentration (IC50) at SIK1 was 10 to 100 nM; at SIK2, 0.01 to 10 nM; against SIK3, 0.01 to 10 nM.
Consider `COc1cc(-c2cnc3cc(OCC4CCCC4)ccn23)cc(OC(F)F)c1C(=O)NC1CC1` [compound 61, 4-[7-(cyclopentylmethoxy)imidazo[1,2-a]pyridin-3-yl]-N-cyclopropyl-2-(difluoromethoxy)-6-methoxy-benzamide], for which the IC50 against SIK1, against SIK2 and on SIK3 was 0.01 to 10 nM in each case.
As to `COc1cc(-c2cnc3cc(OC4CCC(F)(F)C4)ccn23)cc(OC(F)F)c1C(=O)NC1CC1` (stereo not drawn) [compound 62, N-cyclopropyl-4-[7-(3,3-difluorocyclopentoxy)imidazo[1,2-a]pyridin-3-yl]-2-(difluoromethoxy)-6-methoxy-benzamide], the IC50 on SIK1 lay within 10 to 100 nM; against SIK2, 10 to 100 nM; on SIK3 it was 0.01 to 10 nM.
As to `COc1cc(-c2cnc3cc(OCCN4CCCC4=O)ccn23)cc(OC(F)F)c1C(=O)NC1CC1` [compound 63, N-cyclopropyl-2-(difluoromethoxy)-6-methoxy-4-[7-[2-(2-oxopyrrolidin-1-yl)ethoxy]imidazo[1,2-a]pyridin-3-yl]benzamide], the half-inhibitory concentration (IC50) on SIK1, at SIK2 and against SIK3 was 0.01 to 10 nM in each case.
As to `COc1cc(-c2cnc3cc(OCCOCCN(C)C)ccn23)cc(OC(F)F)c1C(=O)NC1CC1` [compound 65, N-cyclopropyl-2-(difluoromethoxy)-4-[7-[2-[2-(dimethylamino)ethoxy]ethoxy]imidazo[1,2-a]pyridin-3-yl]-6-methoxy-benzamide], the IC50 against SIK1, at SIK2 and on SIK3 was 0.01 to 10 nM each time.
Turning to `COc1cc(-c2cnc3cc(OCC(C)(C)C)ccn23)cc(OC(F)F)c1C(=O)NC1CC1` [compound 66, N-cyclopropyl-2-(difluoromethoxy)-4-[7-(2,2-dimethylpropoxy)imidazo [1,2-a]pyridin-3-yl]-6-methoxy-benzamide], the IC50 at SIK1, on SIK2 and on SIK3 was 0.01 to 10 nM throughout.
Regarding `COc1cc(-c2cnc3cc(OCc4ccccc4)ccn23)cc(OC(F)F)c1C(=O)NC1CC1` [compound 68, 4-(7-benzyloxyimidazo[1,2-a]pyridin-3-yl)-N-cyclopropyl-2-(difluoromethoxy)-6-methoxy-benzamide], the IC50 against SIK1, on SIK2 and at SIK3 was 0.01 to 10 nM throughout.
Consider `COc1cc(-c2cnc3cc(OCC4CCCCC4)ccn23)cc(OC(F)F)c1C(=O)NC1CC1` [compound 69, 4-[7-(cyclohexylmethoxy)imidazo[1,2-a]pyridin-3-yl]-N-cyclopropyl-2-(difluoromethoxy)-6-methoxy-benzamide], for which the IC50 against SIK1 was in the range of 10 to 100 nM; against SIK2, 0.01 to 10 nM; on SIK3, 0.01 to 10 nM.
`COCCOc1ccn2c(-c3cc(OC)c(C(=O)NC4CC4)c(OC(F)F)c3)cnc2c1` [compound 70, N-cyclopropyl-2-(difluoromethoxy)-6-methoxy-4-[7-(2-methoxyethoxy)imidazo [1,2-a]pyridin-3-yl]benzamide]: the IC50 against SIK1 is 10 to 100 nM; at SIK2, 0.01 to 10 nM; against SIK3, 0.01 to 10 nM.
On to `CCOCCOc1ccn2c(-c3cc(OC)c(C(=O)NC4CC4)c(OC(F)F)c3)cnc2c1` [compound 72, N-cyclopropyl-2-(difluoromethoxy)-4-[7-(2-ethoxyethoxy)imidazo [1,2-a]pyridin-3-yl]-6-methoxy-benzamide], for which the IC50 on SIK1 lay in the range of 10 to 100 nM; against SIK2, 0.01 to 10 nM; against SIK3, 0.01 to 10 nM.
Take `COc1cc(-c2cnc3cc(OCCOCCO)ccn23)cc(OC(F)F)c1C(=O)NC1CC1` [compound 73]: the IC50 on SIK1 was 10 to 100 nM; against SIK2, 0.01 to 10 nM; on SIK3 it was 0.01 to 10 nM.
`COc1cc(-c2cnc3cc(OCC(C)(C)CO)ccn23)cc(OC(F)F)c1C(=O)NC1CC1` [compound 74, N-cyclopropyl-2-(difluoromethoxy)-4-[7-(3-hydroxy-2,2-dimethyl-propoxy)imidazo[1,2-a]pyridin-3-yl]-6-methoxy-benzamide]: the 50% inhibitory concentration (IC50) against SIK1 lay in the range of 10 to 100 nM; on SIK2, 0.01 to 10 nM; on SIK3, 0.01 to 10 nM.
With `COc1cc(-c2cnc3cc(OCC4CCC(F)(F)C4)ccn23)cc(OC(F)F)c1C(=O)NC1CC1` (stereo not drawn) [compound 75, N-cyclopropyl-4-[7-[(3,3-difluorocyclopentyl)methoxy]imidazo[1,2-a]pyridin-3-yl]-2-(difluoromethoxy)-6-methoxy-benzamide], the concentration for half-maximal inhibition (IC50) against SIK1, on SIK2 and on SIK3 was 0.01 to 10 nM in each case.
Regarding `COc1cc(-c2cnc3cc(OCCC4CC(F)(F)C4)ccn23)cc(OC(F)F)c1C(=O)NC1CC1` [compound 76, N-cyclopropyl-4-[7-[2-(3,3-difluorocyclobutyl)ethoxy]imidazo[1,2-a]pyridin-3-yl]-2-(difluoromethoxy)-6-methoxy-benzamide], the IC50 lay in the range of 10 to 100 nM on SIK1, 0.01 to 10 nM against SIK2 and 0.01 to 10 nM against SIK3.
As to `COc1cc(-c2cnc3cc(OC4CCC(F)(F)CC4)ccn23)cc(OC(F)F)c1C(=O)NC1CC1` [compound 77, N-cyclopropyl-4-[7-(4,4-difluorocyclohexoxy)imidazo[1,2-a]pyridin-3-yl]-2-(difluoromethoxy)-6-methoxy-benzamide], the half-maximal inhibitory concentration (IC50) was 100 to 500 nM at SIK1, 10 to 100 nM at SIK2 and 0.01 to 10 nM against SIK3.
The matching figures for `COc1cc(-c2cnc3cc(OC[C@H]4CCCN4CC(F)F)ccn23)cc(OC(F)F)c1C(=O)NC1CC1` [compound 80, N-cyclopropyl-4-[7-[[(2R)-1-(2,2-difluoroethyl)pyrrolidin-2-yl]methoxy]imidazo[1,2-a]pyridin-3-yl]-2-(difluoromethoxy)-6-methoxy-benzamide]: 10 to 100 nM, 0.01 to 10 nM and 0.01 to 10 nM.
The like results for `COc1cc(-c2cnc3cc(OCC4CN(C)CCO4)ccn23)cc(OC(F)F)c1C(=O)NC1CC1` (stereo not drawn) [compound 82, N-cyclopropyl-2-(difluoromethoxy)-6-methoxy-4-[7-[(4-methylmorpholin-2-yl)methoxy]imidazo[1,2-a]pyridin-3-yl]benzamide] were, in that order, 10 to 100 nM, 0.01 to 10 nM and 0.01 to 10 nM.
The like results for `COc1cc(-c2cnc3cc(OCc4cncn4C)ccn23)cc2c1C(=O)N(CC(F)(F)F)CC2` [compound 85, 8-methoxy-6-[7-[(3-methylimidazol-4-yl)methoxy]imidazo[1,2-a]pyridin-3-yl]-2-(2,2,2-trifluoroethyl)-3,4-dihydroisoquinolin-1-one] were, in that order, above 500 nM, 0.01 to 10 nM and 0.01 to 10 nM.
For the molecule `COc1cc(-c2cnc3cc(OCC4CCN4C(=O)OC(C)(C)C)ccn23)cc(OC(F)F)c1C(=O)NC1CC1` (stereo not drawn) [compound 87, tert-butyl 2-[[3-[4-(cyclopropylcarbamoyl)-3-(difluoromethoxy)-5-methoxy-phenyl]imidazo[1,2-a]pyridin-7-yl]oxymethyl]azetidine-1-carboxylate], the IC50 at SIK1 was in the range of 10 to 100 nM; against SIK2, 0.01 to 10 nM; against SIK3 it was 0.01 to 10 nM.
Consider `COc1cc(-c2cnc3cc(OCC4(C)COC4)ccn23)cc(OC(F)F)c1C(=O)NC1CC1` [compound 89, N-cyclopropyl-2-(difluoromethoxy)-6-methoxy-4-[7-[(3-methyloxetan-3-yl)methoxy]imidazo[1,2-a]pyridin-3-yl]benzamide], for which the IC50 is 10 to 100 nM on SIK1, 0.01 to 10 nM on SIK2 and 0.01 to 10 nM against SIK3.
With `COc1cc(-c2cnc3cc(OCC(F)F)ccn23)cc(OC(F)F)c1C(=O)NC1CC1` [compound 90, N-cyclopropyl-4-[7-(2,2-difluoroethoxy)imidazo [1,2-a]pyridin-3-yl]-2-(difluoromethoxy)-6-methoxy-benzamide], the half-maximal inhibitory concentration (IC50) at SIK1 fell in the range of 10 to 100 nM; against SIK2, 0.01 to 10 nM; at SIK3 it was 0.01 to 10 nM.
Consider `COc1cc(-c2cnc3cc(OCC(F)(F)F)ccn23)cc(OC(F)F)c1C(=O)NC1CC1` [compound 91, N-cyclopropyl-2-(difluoromethoxy)-6-methoxy-4-[7-(2,2,2-trifluoroethoxy)imidazo [1,2-a]pyridin-3-yl]benzamide], for which the concentration for half-maximal inhibition (IC50) fell in the range of 10 to 100 nM against SIK1, 0.01 to 10 nM at SIK2 and 0.01 to 10 nM at SIK3.

One may read the IC50 as the concentration needed to halve the response being measured. A higher IC50 goes with lower potency.
